Laboratory results reported in patent EP3974434B1, “MACROLIDE DERIVATIVES, PREPARATION METHOD AND APPLICATION THEREOF” (Zhejiang Hisun Pharmaceutical Co., Ltd., priority 2019, dated 2020).

What was measured:
Assay type in all cases: biochemical
TRKA(G667C) = target: T1, TRKA(G667C) (Homo sapiens, UniProt P04629, G667C); test: HTRF KinEASE-TK kinase activity inhibition assay, TRKA(G667C); details: ATP 1 µM
T1 construct: purchased SignalChem N16-12CG-10
Excerpt: (§1) The following method was used to determine the inhibition degrees of the compounds of the present invention on the activity of recombinant human NTRK family kinase in vitro. In this method, HTRF®KinEASE-TK tyrosine kinase kit (article number: 62TK0PEB) of Cisbio company was used, and the principle of the kit was based on time-resolved fluorescence resonance energy transfer (TF-FRET), and the inhibition of the compounds on the activity of the NTRK kinase was reflected by determining a phosphorylation degree of a biotinylated polypeptide substrate mediated by NTRK kinase. For detailed experimental operation, please refer to the kit instruction. Recombinant human wild-type NTRK proteins were purchased from Carna bioscience (the article numbers were TRKA #08-186, TRKB #08-187 and TRKC #08-197 respectively), and recombinant human mutant NTRK proteins were purchased from SignalChem (the article numbers were TRKA G595R #N16-12BG-10, TRKA G667C # N16-12CG-10, and TRKC G623R # N18-12CH-10 respectively).
(§2) The experimental methods were operated according to the steps in the kit instruction, and were briefly described as follows: a test compound was first dissolved in DMSO to prepare a storage solution, and then diluted in gradient with a buffer provided in the kit. A final concentration of the test compound in the reaction system ranged from 1,000 nM to 0.004 nM. An ATP Km value concentration of each NTRK protein was determined by using an ATP solution diluted in gradient (Sangon Biotech (Shanghai) Co., Ltd., A600311). According to the Km value obtained, the ATP concentrations in the reaction system were set as 100 µM for TRKA, 10 µM for TRKB, 50 µM for TRKC, 7 µM for TRKA(G595R), 1 µM for TRKA(G667C) and 100 µM for TRKC(G623R). The reaction was carried out in a 384-well microplate. Firstly, the compound and a certain amount of corresponding NTRK protein were added to the wells and incubated for 5 minutes to 10 minutes at room temperature. Then, the ATP solution and the biotinylated polypeptide substrate solution were added to the reaction solution and incubated with shaking at room temperature for 60 minutes. Then, an anti-phosphorylated tyrosine antibody coupled with a europium compound and streptavidin coupled with modified allophycocyanin XL665 were added to the reaction, and continuously incubated with shaking at room temperature for 1 hour. After incubation, fluorescence intensity values of each well at an excitation wavelength of 304 nm, and emission wavelengths of 620 nm and 665 nM were determined in a TF-FRET mode on a microplate reader. Compared with the fluorescence intensity ratio of a control group (0.1% DMSO), the percentage inhibition rates of the compound at each concentration were calculated, and the IC50 value of the compound was obtained by performing nonlinear regression analysis for logarithmic value of the compound concentration - inhibition rate by GraphPad Prism 5 software, which can be seen in Table 1. Table 1 IC50 data of the compounds of the present invention on TRK enzyme activity inhibition

TRKC(G623R) = target: T2, TRKC(G623R) (Homo sapiens, UniProt Q16288, G623R); test: HTRF KinEASE-TK kinase activity inhibition assay, TRKC(G623R); details: ATP 100 µM
T2 construct: purchased SignalChem N18-12CH-10
T2 sequence (Q16288 32-839 G623R): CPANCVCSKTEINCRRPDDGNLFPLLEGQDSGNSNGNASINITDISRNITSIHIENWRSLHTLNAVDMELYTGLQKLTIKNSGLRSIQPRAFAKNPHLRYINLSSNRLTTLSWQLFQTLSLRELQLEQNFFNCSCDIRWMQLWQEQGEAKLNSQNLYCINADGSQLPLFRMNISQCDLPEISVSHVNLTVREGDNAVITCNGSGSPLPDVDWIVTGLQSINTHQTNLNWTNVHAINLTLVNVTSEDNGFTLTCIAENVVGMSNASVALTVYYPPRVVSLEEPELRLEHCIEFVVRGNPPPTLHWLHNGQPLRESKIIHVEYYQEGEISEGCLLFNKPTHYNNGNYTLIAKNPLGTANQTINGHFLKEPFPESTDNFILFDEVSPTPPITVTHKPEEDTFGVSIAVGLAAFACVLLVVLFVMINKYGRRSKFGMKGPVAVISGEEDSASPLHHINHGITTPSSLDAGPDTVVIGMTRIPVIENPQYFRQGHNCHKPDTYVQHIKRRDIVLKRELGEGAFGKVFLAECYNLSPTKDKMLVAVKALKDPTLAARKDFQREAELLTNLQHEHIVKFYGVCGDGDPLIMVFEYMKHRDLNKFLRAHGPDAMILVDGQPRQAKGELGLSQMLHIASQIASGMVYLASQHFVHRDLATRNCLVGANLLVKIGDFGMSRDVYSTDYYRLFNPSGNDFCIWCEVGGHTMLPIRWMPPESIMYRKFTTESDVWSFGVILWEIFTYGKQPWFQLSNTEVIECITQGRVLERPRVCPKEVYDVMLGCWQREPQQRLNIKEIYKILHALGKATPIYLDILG
Excerpt: as §1
as §2, with “Then, an anti-phosphorylated tyrosine antibody coupled with a europium compound and streptavidin coupled with modified allophycocyanin XL665 were added to the reaction, and continuously incubated with shaking at room temperature for 1 hour.” left out, “Table 1 IC50 data of the compounds of the present invention on TRK enzyme activity inhibition” left out

TRKC = target: T3, TRKC (Homo sapiens, UniProt Q16288); test: HTRF KinEASE-TK kinase activity inhibition assay, TRKC; details: ATP 50 µM
T3 construct: purchased Carna bioscience 08-197
T3 sequence (Q16288 32-839): as the sequence (Q16288 32-839 G623R) above, with R592G counted along it
Excerpt: as §1, §2

TRKB = target: T4, TRKB (Homo sapiens, UniProt Q16620); test: HTRF KinEASE-TK kinase activity inhibition assay, TRKB; details: ATP 10 µM
T4 construct: purchased Carna bioscience 08-187
T4 sequence (Q16620 32-822): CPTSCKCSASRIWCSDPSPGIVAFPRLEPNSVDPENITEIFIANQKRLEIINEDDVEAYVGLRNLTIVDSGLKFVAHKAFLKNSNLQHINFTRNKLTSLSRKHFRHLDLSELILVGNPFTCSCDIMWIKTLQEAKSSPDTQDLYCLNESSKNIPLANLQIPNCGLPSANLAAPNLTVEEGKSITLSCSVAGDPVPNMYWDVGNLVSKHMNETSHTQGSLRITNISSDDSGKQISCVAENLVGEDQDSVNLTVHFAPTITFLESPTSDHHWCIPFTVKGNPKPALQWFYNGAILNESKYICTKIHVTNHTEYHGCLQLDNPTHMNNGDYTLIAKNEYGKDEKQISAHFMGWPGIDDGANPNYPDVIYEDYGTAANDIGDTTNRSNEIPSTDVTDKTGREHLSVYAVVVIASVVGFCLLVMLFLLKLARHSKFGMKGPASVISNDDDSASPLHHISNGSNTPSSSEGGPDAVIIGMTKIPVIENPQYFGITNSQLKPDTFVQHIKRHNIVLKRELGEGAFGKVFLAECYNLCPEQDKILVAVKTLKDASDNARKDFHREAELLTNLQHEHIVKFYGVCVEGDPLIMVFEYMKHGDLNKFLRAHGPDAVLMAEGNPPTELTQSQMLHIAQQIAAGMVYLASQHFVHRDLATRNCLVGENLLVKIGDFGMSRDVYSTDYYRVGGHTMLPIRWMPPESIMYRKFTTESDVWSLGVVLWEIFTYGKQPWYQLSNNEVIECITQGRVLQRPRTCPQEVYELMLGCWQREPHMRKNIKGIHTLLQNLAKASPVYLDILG
Excerpt: as §1, §2

TRKA = target: T5, TRKA (Homo sapiens, UniProt P04629); test: HTRF KinEASE-TK kinase activity inhibition assay, TRKA; details: ATP 100 µM
T5 construct: purchased Carna bioscience 08-186
T5 sequence (P04629 33-796): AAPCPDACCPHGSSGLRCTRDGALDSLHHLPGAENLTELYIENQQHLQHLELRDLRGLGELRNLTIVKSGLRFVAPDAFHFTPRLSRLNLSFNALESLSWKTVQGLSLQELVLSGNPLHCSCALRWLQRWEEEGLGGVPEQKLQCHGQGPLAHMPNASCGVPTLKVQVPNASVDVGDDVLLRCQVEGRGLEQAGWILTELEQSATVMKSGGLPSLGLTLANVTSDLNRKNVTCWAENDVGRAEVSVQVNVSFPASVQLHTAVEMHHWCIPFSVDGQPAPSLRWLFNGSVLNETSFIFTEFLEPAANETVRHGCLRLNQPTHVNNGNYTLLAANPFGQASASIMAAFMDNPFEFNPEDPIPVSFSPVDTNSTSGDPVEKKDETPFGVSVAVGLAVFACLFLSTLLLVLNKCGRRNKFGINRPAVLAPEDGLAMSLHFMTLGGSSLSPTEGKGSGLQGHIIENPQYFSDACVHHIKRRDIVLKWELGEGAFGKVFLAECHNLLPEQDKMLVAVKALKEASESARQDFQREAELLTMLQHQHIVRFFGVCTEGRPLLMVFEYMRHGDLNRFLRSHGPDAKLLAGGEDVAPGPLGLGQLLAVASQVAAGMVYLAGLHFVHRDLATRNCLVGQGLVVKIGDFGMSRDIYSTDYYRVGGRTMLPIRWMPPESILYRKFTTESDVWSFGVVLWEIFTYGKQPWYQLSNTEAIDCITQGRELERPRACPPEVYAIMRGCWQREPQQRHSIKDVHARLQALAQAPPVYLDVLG
Excerpt: as §1, §2

TRKA(G595R) = target: T6, TRKA(G595R) (Homo sapiens, UniProt P04629, G595R); test: HTRF KinEASE-TK kinase activity inhibition assay, TRKA(G595R); details: ATP 7 µM
T6 construct: purchased SignalChem N16-12BG-10
T6 sequence (P04629 33-796 G595R): as the sequence (P04629 33-796) above, with G563R counted along it
Excerpt: as §1, §2

T1 sequence (P04629 33-796 G667C): as the sequence (P04629 33-796) above, with G635C counted along it

IC50 (TRKA(G667C)): 4.6 nM | IC50 (TRKC(G623R)): 7.4 nM | IC50 (TRKC): 0.52 nM | IC50 (TRKB): 0.36 nM | IC50 (TRKA): 0.98 nM | IC50 (TRKA(G595R)): 4.97 nM
SMILES: C[C@H]1Nc2ccn3ncc(c3n2)C(=O)NCC2(C)Cc3cc(Cl)cc1c3O2 (stereo partly drawn) [Example 22, (3R)-6-chloro-3,11-dimethyl-10-oxa-2,13,17,18,21-pentaazapentacyclo[13.5.2.1^8,11.0^4,9.0^18,22]tricosa-1 (21),4,6,8,15(22),16,19-heptaen-14-one]
